From ChEMBL document CHEMBL1147019, “5-Piperazinyl pyridine carboxamide bradykinin B1 antagonists” (Bioorg Med Chem Lett, 2006)

Tests used:
B1 bradykinin receptor [1] = target: T1, B1 bradykinin receptor (Homo sapiens, UniProt P46663); experiment: Binding affinity to human BK1 receptor
T1 sequence (P46663 whole entry): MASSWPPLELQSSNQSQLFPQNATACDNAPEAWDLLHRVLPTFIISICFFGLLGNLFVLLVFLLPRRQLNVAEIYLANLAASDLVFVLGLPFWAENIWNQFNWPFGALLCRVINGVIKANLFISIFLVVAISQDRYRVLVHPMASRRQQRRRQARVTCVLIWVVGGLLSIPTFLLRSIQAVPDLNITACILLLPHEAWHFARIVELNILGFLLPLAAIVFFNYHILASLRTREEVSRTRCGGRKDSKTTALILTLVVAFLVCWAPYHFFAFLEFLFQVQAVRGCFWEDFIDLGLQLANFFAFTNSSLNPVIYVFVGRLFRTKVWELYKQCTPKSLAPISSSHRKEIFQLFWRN

B1 bradykinin receptor [2] = target: T2, B1 bradykinin receptor (Homo sapiens, UniProt P46663); experiment: Binding affinity to human BK1 receptor E273 mutant
B1 bradykinin receptor [3] = target: T2, B1 bradykinin receptor; experiment: Binding affinity to human BK1 receptor Q295 mutant
B1 bradykinin receptor [4] = target: T2, B1 bradykinin receptor; experiment: Binding affinity to human BK1 receptor D291 mutant
B1 bradykinin receptor [5] = target: T2, B1 bradykinin receptor; experiment: Binding affinity to human BK1 receptor N298 mutant

| Structure (SMILES) | Ki (B1 bradykinin receptor [1]) [nM] | further results |
| --- | --- | --- |
| CCCN1CCN(C(=O)c2ccc(NCc3ccc(-c4cccc(F)c4C(=O)OC)cc3F)nc2)CC1 | 1.7 |  |
| COC(=O)c1c(F)cccc1-c1ccc(CNc2ccc(C(=O)N3CCN(C(=O)C(C)(C)C)CC3)cn2)c(F)c1 | 213 |  |
| COC(=O)c1c(F)cccc1-c1ccc(CNc2ccc(C(=O)N3CCN(CC(C)C)CC3)cn2)c(F)c1 | 1.5 |  |
| COC(=O)c1c(F)cccc1-c1ccc(CNc2ccc(C(=O)N3CCN(CCC(C)C)CC3)cn2)c(F)c1 | 9.5 |  |
| COC(=O)c1c(F)cccc1-c1ccc(CNc2ccc(C(=O)N3CCN(C4CCC4)CC3)cn2)c(F)c1 | 2.9 |  |
| COC(=O)c1c(F)cccc1-c1ccc(CNc2ccc(C(=O)N3CCN(c4cccnc4)CC3)cn2)c(F)c1 | 3.5 |  |
| COC(=O)c1c(F)cccc1-c1ccc(CNc2nccc(C)c2NC(=O)CC#N)c(F)c1 | 0.71 |  |
| CCCCN1CCN(C(=O)c2ccc(NCc3ccc(-c4cccc(F)c4C(=O)OC)cc3F)nc2)CC1 | 1.4 |  |
| COC(=O)c1c(F)cccc1-c1ccc(CNc2ccc(C(=O)N3CCN(CC4CCCC4)CC3)cn2)c(F)c1 | 1.7 |  |
| COC(=O)c1c(F)cccc1-c1ccc(CNc2ccc(C(=O)N3CCN(C4CCCC4)CC3)cn2)c(F)c1 | 1.5 |  |
| COC(=O)c1c(Cl)cccc1-c1ccc(CNc2cc(CN3CCOCC3)ccn2)c(F)c1 | > 3000 |  |
| COC(=O)c1c(F)cccc1-c1ccc(CNc2ccc(C(=O)N3CCN(CC4CCC4)CC3)cn2)c(F)c1 | 3.4 |  |
| COC(=O)c1c(F)cccc1-c1ccc(CNc2ccc(C(=O)N3CCN(Cc4ccccc4)CC3)cn2)c(F)c1 | 26 |  |
| C#CCN1CCN(C(=O)c2ccc(NCc3ccc(-c4cccc(F)c4C(=O)OC)cc3F)nc2)CC1 | 25 |  |
| C/C=C/CN1CCN(C(=O)c2ccc(NCc3ccc(-c4cccc(F)c4C(=O)OC)cc3F)nc2)CC1 | 3.3 |  |
| CCC(C)N1CCN(C(=O)c2ccc(NCc3ccc(-c4cccc(F)c4C(=O)OC)cc3F)nc2)CC1 (stereo not given) | 1.5 |  |
| COC(=O)c1c(F)cccc1-c1ccc(CNc2ccc(CN3CCOCC3)cn2)c(F)c1 | 184 |  |
| COC(=O)c1c(F)cccc1-c1ccc(CNc2ccc(C(=O)N3CCN(CC(F)(F)F)CC3)cn2)c(F)c1 | 52 |  |
| COC(=O)c1c(F)cccc1-c1ccc(CNc2ccc(CN3CCCCC3)cn2)c(F)c1 | 9.1 |  |
| C=CCN1CCN(C(=O)c2ccc(NCc3ccc(-c4cccc(F)c4C(=O)OC)cc3F)nc2)CC1 | 8 |  |
| COC(=O)c1c(F)cccc1-c1ccc(CNc2ccc(C(=O)N3CCN(C(C)=O)CC3)cn2)c(F)c1 | 17 |  |
| COC(=O)c1c(F)cccc1-c1ccc(CNc2ccc(C(=O)N3CCN(S(C)(=O)=O)CC3)cn2)c(F)c1 | 23 |  |

| Structure (SMILES) | Ki (B1 bradykinin receptor [1]) [nM] | further results |
| --- | --- | --- |
| COC(=O)c1c(F)cccc1-c1ccc(CNc2cc(C(=O)N3CCN(C)CC3)ccn2)c(F)c1 | 893 |  |
| COC(=O)c1c(F)cccc1-c1ccc(CNc2ccc(C(=O)N3CCN(CCF)CC3)cn2)c(F)c1 | 5.2 |  |
| COC(=O)c1c(F)cccc1-c1ccc(CNc2cc(C(=O)N3CCCCC3)ccn2)c(F)c1 | > 3000 |  |
| COC(=O)c1c(F)cccc1-c1ccc(CNc2ccc(C(=O)N3CCN(C(=O)OC)CC3)cn2)c(F)c1 | 34 |  |
| COC(=O)c1c(F)cccc1-c1ccc(CNc2ccc(C(=O)N3CCN(c4ccncc4)CC3)cn2)c(F)c1 | 0.045 | Ki (B1 bradykinin receptor [2]): 0.05 nM; Ki (B1 bradykinin receptor [3]): 5.12 nM; Ki (B1 bradykinin receptor [4]): 0.08 nM; Ki (B1 bradykinin receptor [5]): 0.83 nM |
| COC(=O)c1c(F)cccc1-c1ccc(CNc2ccc(C(=O)N3CCN(CC(F)F)CC3)cn2)c(F)c1 | 28 |  |
| COC(=O)c1c(F)cccc1-c1ccc(CNc2ccccn2)c(F)c1 | 815 |  |
| COC(=O)c1c(F)cccc1-c1ccc(CNc2ccc(C(=O)N3CCN(c4ccccc4)CC3)cn2)c(F)c1 | 62 |  |
| O=C(C[C@@H]1C(=O)Nc2ccccc2N1S(=O)(=O)c1ccc(Cl)c(Cl)c1)NCCc1ccc(C2=NCCN2)cc1 | 0.034 | Ki (B1 bradykinin receptor [2]): 0.0078 nM; Ki (B1 bradykinin receptor [3]): 0.89 nM; Ki (B1 bradykinin receptor [4]): 0.049 nM; Ki (B1 bradykinin receptor [5]): 0.038 nM |
| COC(=O)c1c(F)cccc1-c1ccc(CNc2ccc(C(=O)N3CCN(C)CC3)cn2)c(F)c1 | 4.4 |  |
| COC(=O)c1c(F)cccc1-c1ccc(CNc2ccc(C(=O)N3CCN(CC4CC4)CC3)cn2)c(F)c1 | 0.85 |  |
| COC(=O)c1c(F)cccc1-c1ccc(CNc2ccc(C(=O)N3CCN(C(C)C)CC3)cn2)c(F)c1 | 2.2 |  |
| COC(=O)c1c(F)cccc1-c1ccc(CNc2ccc(C(=O)N3CCNCC3)cn2)c(F)c1 | 5.5 |  |
| COC(=O)c1c(Cl)cccc1-c1ccc(CNc2cc(CN3CCCCC3)ccn2)c(F)c1 | 611 |  |
| CCN1CCN(C(=O)c2ccc(NCc3ccc(-c4cccc(F)c4C(=O)OC)cc3F)nc2)CC1 | 3.4 |  |
| C=CCCN1CCN(C(=O)c2ccc(NCc3ccc(-c4cccc(F)c4C(=O)OC)cc3F)nc2)CC1 | 4 |  |
| COC(=O)c1c(F)cccc1-c1ccc(CNc2cc(C(=O)N3CCOCC3)ccn2)c(F)c1 | 2100 |  |
| COC(=O)c1c(F)cccc1-c1ccc(CNc2ccc(C(=O)N3CCCCC3)cn2)c(F)c1 | 70 |  |
| COC(=O)c1c(F)cccc1-c1ccc(CNc2ccc(C(=O)N3CCN(c4ccccn4)CC3)cn2)c(F)c1 | 65 | Ki (B1 bradykinin receptor [2]): 286 nM; Ki (B1 bradykinin receptor [3]): 10000 nM; Ki (B1 bradykinin receptor [4]): 85 nM; Ki (B1 bradykinin receptor [5]): 726 nM |
| COC(=O)c1c(F)cccc1-c1ccc(CNc2ccc(C(=O)N3CCOCC3)cn2)c(F)c1 | 80 |  |
| COC(=O)c1c(F)cccc1-c1ccc(CNc2ccc(C(=O)N3CCN(C4CCCCC4)CC3)cn2)c(F)c1 | 2.8 |  |
